In US7160708B2, “Fatty alcohol oxidase genes and proteins from Candida tropicalis and methods relating thereto” (Cognis Corporation, priority 2002, dated 2007):

Tests used:
FAO1 or FAO2 = assay: Alcohols used for substrate specificity testing, activity detected with either enzyme; type: biochemical, Candida tropicalis; design: key: X: Activity detected using this substrate with either FAO1 or FAO2; conditions: final alcohol concentration 200 μM
Text: The assay procedure used is a modification of an assay used by Kemp et al (1). The assay is a two-enzyme coupled reaction. Dodecanol was used as the substrate for the FAO, which oxidizes the dodecanol to dodecanal. At the same time it reduces molecular oxygen to hydrogen peroxide. A second enzyme in the reaction mixture, peroxidase derived from horseradish (HRP), uses electrons obtained by oxidizing hydrogen peroxide to […] 2,2′-azino-bis(3-ethylbenzthiazoline-6-sulfonic acid) (ABTS) in the reaction mixture. […] absorbs strongly at 405 nm. The quality of HRP is important, since it has been observed that commercially obtained preparations vary in quality. It is necessary, therefore, to obtain preparations of highest purity. The HRP (Sigma #P8415) was made at a concentration of 2 mg/ml (≈250 units/mg) in 50 mM potassium phosphate buffer, pH 7.6.
After adding the extract, the activity was generally read at 405 nm for one minute at room temperature. The amount of extract that was added to the reaction mixture was varied so that the activity fell within the range of 0.2 to 1.0 ΔA^405 nm/min. Alcohol oxidase activity was reported as specific activity units/mg protein (1 unit=μmole substrate oxidized/min). An extinction coefficient at 405 nm of 18.4 was used for ABTS and was equivalent to 0.5 mM oxidized substrate. In certain substrate-specificity experiments, 200 mM HEPES buffer, pH 7.6, containing 0.5% Triton X100 was used in place of the 200 mM HEPES buffer in the reaction mixture described above. The detergent aided in solubilizing some of the more water-insoluble substrates tested.
FAO1, FAO2a and FAO2a′ were tested for their activity with various alcohols. The alcohols shown in Table 5 were prepared in 20 mM stock solutions in acetone. Alcohols showing activity with either FAO1 or FAO2a are indicated. The final concentration of the alcohol used in the substrate specificity experiment was 200 μM. These same alcohols were used to determine the Km and Vmax of FAO1, FAO2a, and FAO2a′. […] There was a big drop in activity in going from a C8 alcohol to a C6 alcohol with FAO1, FAO2a, and FAO2a′. FAO2a and FAO2a′ oxidize 2-octanols fairly well; however no activity was detected with FAO1. In contrast, FAO1 oxidizes ω-hydroxy fatty acids well, but no activity for ω-hydroxy fatty acids was measured with FAO2a and FAO2a′ (FIG. 6). […] Although the substrate specificity of FAO2b was not performed, due to the close homology with FAO2a, it is likely to be very similar.

[1] = system: FAO from C. tropicalis (ATCC 20336); conditions: cited from earlier work; for Oxidation by C. tropicalis FAO (Kemp et al. 1988): cells grown on hexadecane; for Oxidation by purified C. tropicalis FAO: purified enzyme (ref. 3)
C=CCCCCCCCCCO = assay: purified protein, by the assay type
CCCCCCCCC(C)O = assay: purified protein, by the assay type
CCCCCCCCCC(C)O = assay: purified protein, by the assay type
CCCCCCCCCCC(C)O = assay: purified protein, by the assay type
CCCCCCCCCCC(O)CO = assay: purified protein, by the assay type
CCCCCCCCCCCCCCC(C)O = assay: purified protein, by the assay type
CCCCCCCCCCCCCCCCO = assay: purified protein, by the assay type
CCCCCCCCCCCCCCO = assay: purified protein, by the assay type
CCCCCCCCCCCCO = assay: purified protein, by the assay type
CCCCCCCCCCO = assay: purified protein, by the assay type
CCCCCCCCO = assay: purified protein, by the assay type
OCCCCCCCCCCCCCCCCO = assay: purified protein, by the assay type
OCCCCCCCCCCO = assay: purified protein, by the assay type
FAO1 = FAO1 (Candida tropicalis, UniProt Q6QIR6); assay: FAO enzyme assay (HRP/ABTS coupled) with FAO1 expressed in E. coli: substrate specificity and Km; conditions: for Activity of FAO1 with the alcohol (substrate specificity): 200 μM alcohol, relative to dodecanol set at 100%, FIG. 4-6
Sequence of FAO1 (Q6QIR6 entry or part of it): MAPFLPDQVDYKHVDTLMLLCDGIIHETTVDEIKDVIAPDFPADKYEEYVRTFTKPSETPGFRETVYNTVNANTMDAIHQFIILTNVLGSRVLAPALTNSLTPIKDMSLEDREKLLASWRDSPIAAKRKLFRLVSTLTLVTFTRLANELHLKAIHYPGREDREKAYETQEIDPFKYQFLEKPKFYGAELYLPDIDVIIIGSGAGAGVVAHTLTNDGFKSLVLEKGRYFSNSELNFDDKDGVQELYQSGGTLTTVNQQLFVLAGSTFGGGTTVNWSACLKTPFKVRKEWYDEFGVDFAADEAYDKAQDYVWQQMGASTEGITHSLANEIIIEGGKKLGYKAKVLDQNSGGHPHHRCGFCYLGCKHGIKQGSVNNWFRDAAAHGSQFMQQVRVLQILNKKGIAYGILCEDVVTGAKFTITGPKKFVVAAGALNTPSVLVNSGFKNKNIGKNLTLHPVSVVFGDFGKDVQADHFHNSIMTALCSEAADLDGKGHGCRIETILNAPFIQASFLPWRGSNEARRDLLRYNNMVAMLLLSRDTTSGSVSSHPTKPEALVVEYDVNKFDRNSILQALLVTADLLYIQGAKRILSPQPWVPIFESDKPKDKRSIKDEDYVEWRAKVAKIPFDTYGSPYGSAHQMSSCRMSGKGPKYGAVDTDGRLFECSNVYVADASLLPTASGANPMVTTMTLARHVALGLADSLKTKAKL
Text: (§1) The assay is a two-enzyme coupled reaction. […] ABTS absorbs strongly at 405 nm.

FAO2a = FAO2a (Candida tropicalis, UniProt Q6QIR5, S177L); type: biochemical; conditions: for Km FAO2a: pH 7.6, HEPES/Triton X-100 buffer, enzyme constant, alcohol concentration varied; for Activity of FAO2a with the alcohol (substrate specificity): 200 μM alcohol, relative to dodecanol set at 100%, FIG. 4-6
Sequence of FAO2a (Q6QIR5 whole entry S177L): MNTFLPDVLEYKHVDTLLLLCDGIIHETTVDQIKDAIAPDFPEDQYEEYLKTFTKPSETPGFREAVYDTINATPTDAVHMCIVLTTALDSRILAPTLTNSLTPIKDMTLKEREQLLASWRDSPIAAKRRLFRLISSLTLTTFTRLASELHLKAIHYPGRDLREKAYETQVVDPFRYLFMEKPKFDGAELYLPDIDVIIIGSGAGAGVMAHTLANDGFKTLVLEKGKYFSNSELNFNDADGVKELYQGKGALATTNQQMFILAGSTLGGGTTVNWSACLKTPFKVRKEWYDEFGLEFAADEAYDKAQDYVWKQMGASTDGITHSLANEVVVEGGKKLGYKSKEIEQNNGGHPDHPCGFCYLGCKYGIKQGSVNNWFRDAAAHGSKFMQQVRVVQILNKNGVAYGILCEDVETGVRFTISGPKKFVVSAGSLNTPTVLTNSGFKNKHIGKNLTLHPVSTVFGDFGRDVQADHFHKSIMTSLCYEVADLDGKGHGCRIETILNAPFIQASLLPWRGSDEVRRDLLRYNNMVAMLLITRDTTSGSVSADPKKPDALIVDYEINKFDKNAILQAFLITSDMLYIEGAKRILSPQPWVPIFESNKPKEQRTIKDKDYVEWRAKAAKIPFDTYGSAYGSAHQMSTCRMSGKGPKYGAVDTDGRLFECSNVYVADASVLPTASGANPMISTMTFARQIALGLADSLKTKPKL
Text: as §1

FAO2a′ = FAO2a′ (Candida tropicalis, UniProt Q6QIR5); assay: FAO enzyme assay (HRP/ABTS coupled) with FAO2a′ (CTG-codon-altered FAO2a) expressed in E. coli: substrate specificity and Km; conditions: 200 μM alcohol; relative to dodecanol set at 100%; FIG. 4-6
Sequence of FAO2a′ (Q6QIR5 entry or part of it): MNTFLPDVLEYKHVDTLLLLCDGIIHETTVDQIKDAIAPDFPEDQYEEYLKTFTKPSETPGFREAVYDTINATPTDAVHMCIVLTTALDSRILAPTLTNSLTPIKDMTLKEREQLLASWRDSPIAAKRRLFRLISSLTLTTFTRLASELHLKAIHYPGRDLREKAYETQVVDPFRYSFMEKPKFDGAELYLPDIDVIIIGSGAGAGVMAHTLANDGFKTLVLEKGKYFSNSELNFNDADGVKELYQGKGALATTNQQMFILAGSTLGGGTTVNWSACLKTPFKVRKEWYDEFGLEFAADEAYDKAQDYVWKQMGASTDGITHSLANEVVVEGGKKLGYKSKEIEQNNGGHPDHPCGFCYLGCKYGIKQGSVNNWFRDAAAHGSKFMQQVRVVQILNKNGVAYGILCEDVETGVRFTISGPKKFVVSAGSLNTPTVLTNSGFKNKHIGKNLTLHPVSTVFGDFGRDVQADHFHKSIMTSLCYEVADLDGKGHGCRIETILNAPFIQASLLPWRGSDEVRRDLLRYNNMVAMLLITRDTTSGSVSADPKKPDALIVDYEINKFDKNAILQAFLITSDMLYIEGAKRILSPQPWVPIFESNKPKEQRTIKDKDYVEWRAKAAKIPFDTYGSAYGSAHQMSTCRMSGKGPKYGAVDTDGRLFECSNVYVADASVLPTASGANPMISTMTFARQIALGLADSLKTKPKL
Procedure: The assay is a two-enzyme coupled reaction. […] At the same time it reduces molecular oxygen to hydrogen peroxide. A second enzyme in the reaction mixture, peroxidase derived from horseradish (HRP), uses electrons obtained by oxidizing hydrogen peroxide to reduce 2,2′-azino-bis(3-ethylbenzthiazoline-6-sulfonic acid) (ABTS) in the reaction mixture. Reduced ABTS absorbs strongly at 405 nm. […] The HRP (Sigma #P8415) was made at a concentration of 2 mg/ml (≈250 units/mg) in 50 mM potassium phosphate buffer, pH 7.6.
Initially, only the properties of the enzyme derived from the native sequence of FAO2a were determined. […] The properties of both FAO2a and FAO2a′ were determined as described in the following examples.
FAO1, FAO2a and FAO2a′ were tested for their activity with various alcohols. The alcohols shown in Table 5 were prepared in 20 mM stock solutions in acetone. […] The final concentration of the alcohol used in the substrate specificity experiment was 200 μM. These same alcohols were used to determine the Km and Vmax of FAO1, FAO2a, and FAO2a′.
(§2) In this case, all reactions contained the same amount of acetone (20 μl/ml).

fatty alcohol oxidase = assay: FAO activity of extracts made from fermentor samples induced with HOSFFA; type: biochemical, Candida tropicalis; conditions: data not shown
Text: as §1

O=C(O)CCCCCCCCCCCCCCCO = assay: purified protein, by the assay type; conditions: other: pH 7.6, HEPES/Triton X-100 buffer, enzyme constant, alcohol concentration varied
Text: The assay is a two-enzyme coupled reaction. […] At the same time it reduces molecular oxygen to hydrogen peroxide. A second enzyme in the reaction mixture, peroxidase derived from horseradish (HRP), uses electrons obtained by oxidizing hydrogen peroxide to reduce 2,2′-azino-bis(3-ethylbenzthiazoline-6-sulfonic acid) (ABTS) in the reaction mixture. Reduced ABTS absorbs strongly at 405 nm. The quality of HRP is important, since it has been observed that commercially obtained preparations vary in quality. It is necessary, therefore, to obtain preparations of highest purity. The HRP (Sigma #P8415) was made at a concentration of 2 mg/ml (≈250 units/mg) in 50 mM potassium phosphate buffer, pH 7.6.
FAO1, FAO2a and FAO2a′ were tested for their activity with various alcohols. […] The final concentration of the alcohol used in the substrate specificity experiment was 200 μM. These same alcohols were used to determine the Km and Vmax of FAO1, FAO2a, and FAO2a′.
as §2

FAO from C. maltosa = conditions: cited from earlier work
[2] = other: pH 7.6, HEPES/Triton X-100 buffer, enzyme constant, alcohol concentration varied
[3] = other: 0.1 M HEPES, pH 7.6, substrate stocks in acetone (20 μl/ml)

CCCCCCCCCC(C)O (centres unmarked) [2-Undecanol]
Activity Detected (FAO1 or FAO2): X

CCCCCCCCCCC(O)CO (centres unmarked) [1,2-Dodecanediol]
Activity Detected (FAO1 or FAO2): X

O=C(O)CCCCCCCCCCCO [12-Hydroxydodecanoic acid]
Activity Detected (FAO1 or FAO2): X | Oxidation by C. tropicalis FAO (Kemp et al. 1988) [1]: not | Oxidation by purified C. tropicalis FAO [1]: additional activity

OCCCCCCCCCCO [1,10-Decanediol]
Activity Detected (FAO1 or FAO2): X

CCCCCCCCCCCCCCC(C)O (centres unmarked) [2-Hexadecanol]
Activity Detected (FAO1 or FAO2): X

FAO2a (Candida tropicalis; S177L)
Km (C=CCCCCCCCCCO; [2]): 45 µM | Km (CCCCCCCCC(C)O; [2]): 934 µM | Km (CCCCCCCCCC(C)O; [2]): 141 µM | Km (CCCCCCCCCCC(C)O; [2]): 41.3 µM | Km (CCCCCCCCCCC(O)CO; [2]): 998 µM | Km (CCCCCCCCCCCCCCC(C)O; [2]): 350 µM | Km (CCCCCCCCCCCCCCCCO; [2]): 56 µM | Km (CCCCCCCCCCCCCCO; [2]): 4.6 µM | Km (CCCCCCCCCCCCO; [2]): 2.5 µM | Km (CCCCCCCCCCO; [2]): 74 µM | Km (CCCCCCCCO; [2]): 503 µM | Km (OCCCCCCCCCCCCCCCCO; [2]): 37.3 µM | Km (OCCCCCCCCCCO; [2]): 425 µM

CCCCCCO [Hexanol]
Activity Detected (FAO1 or FAO2): X

CCCCCCCCCCO [Decanol]
Activity Detected (FAO1 or FAO2): X

OCCCCCCCCCCCCCCCCO [1,16-Hexadecanediol]
Activity Detected (FAO1 or FAO2): X

O=C(O)CCCCCCCCCO [10-Hydroxydecanoic acid]
Activity Detected (FAO1 or FAO2): X

CCCCCCCCCCCCCCO [Tetradecanol]
Activity of FAO1 with the alcohol (substrate specificity) (FAO1): the preferred longer-chain alcohol | Km FAO2a (FAO2a): lowest Km values | Activity Detected (FAO1 or FAO2): X

FAO2a′ (Candida tropicalis)
Km (C=CCCCCCCCCCO; [3]): 36.1 µM | Km (CCCCCCCCC(C)O; [3]): 1090 µM | Km (CCCCCCCCCC(C)O; [3]): 162 µM | Km (CCCCCCCCCCC(C)O; [3]): 75.3 µM | Km (CCCCCCCCCCC(O)CO; [3]): 928 µM | Km (CCCCCCCCCCCCCCC(C)O; [3]): 720 µM | Km (CCCCCCCCCCCCCCCCO; [3]): 85 µM | Km (CCCCCCCCCCCCCCO; [3]): 2.4 µM | Km (CCCCCCCCCCCCO; [3]): 4.4 µM | Km (CCCCCCCCCCO; [3]): 69.6 µM | Km (CCCCCCCCO; [3]): 654 µM | Km (OCCCCCCCCCCCCCCCCO; [3]): 16.3 µM | Km (OCCCCCCCCCCO; [3]): 1607 µM

CCCCCCC(O)CO (centres unmarked) [1,2-Octanediol]
Activity Detected (FAO1 or FAO2): X

CCCCCCCCCCCCO [Dodecanol]
Activity of FAO2a with the alcohol (substrate specificity) (FAO2a): preferred 1-dodecanol above all other 1-alkanols | Km FAO2a (FAO2a): lowest Km values | Activity Detected (FAO1 or FAO2): X | Oxidation by C. tropicalis FAO (Kemp et al. 1988) [1]: maximal activity | Activity of FAO2a′ with the alcohol (substrate specificity) (FAO2a′): preferred 1-dodecanol above all other 1-alkanols

CCCCCCCCCCC(C)O (centres unmarked) [2-Dodecanol]
Activity Detected (FAO1 or FAO2): X | Activity of extracts from HOSFFA-induced fermentor samples with the alcohol (fatty alcohol oxidase): no activity | Oxidation by purified C. tropicalis FAO [1]: additional activity

CCCCCCCCCCCCCCCCO [Hexadecanol]
Activity Detected (FAO1 or FAO2): X

CCCCCCCCC(C)O (centres unmarked) [2-Decanol]
Activity Detected (FAO1 or FAO2): X

FAO1 (Candida tropicalis)
Km (C=CCCCCCCCCCO; [2]): 9.9 μM μM | Km (CCCCCCCCCCCCCCCCO; [2]): 11.9 μM μM | Km (CCCCCCCCCCCCCCO; [2]): 28.1 μM μM | Km (CCCCCCCCCCCCO; [2]): 14.9 μM μM | Km (CCCCCCCCCCO; [2]): 15.1 μM μM | Km (CCCCCCCCO; [2]): 41.0 μM μM | Km (O=C(O)CCCCCCCCCCCCCCCO): 7.4 μM μM | Km (OCCCCCCCCCCCCCCCCO; [2]): 10.3 μM μM | Km (OCCCCCCCCCCO; [2]): 67.0 μM μM

16-Hydroxydodecanoic acid
Activity Detected (FAO1 or FAO2): X

CCCCCCCCO [Octanol]
Activity of FAO1 with the alcohol (substrate specificity) (FAO1): preferred 1-octanol as substrate | Activity Detected (FAO1 or FAO2): X | Oxidation by C. maltosa FAO (FAO from C. maltosa): highest activity

O=C(O)CCCCCCCCCCCCCCCO [16-hydroxy-hexadecanoic, 16-hydroxyhexadecanoic acid]
Km FAO1 (FAO1; pH 7.6, HEPES/Triton X-100 buffer, enzyme constant, alcohol concentration varied): lowest Km value | Activity of extracts from HOSFFA-induced fermentor samples with the alcohol (fatty alcohol oxidase): good activity | Oxidation by C. tropicalis FAO (Kemp et al. 1988) [1]: oxidize | Oxidation by C. maltosa FAO (FAO from C. maltosa): fairly low rates of oxidation

C=CCCCCCCCCCO [10-Undecen-1-ol]
Activity of FAO2a with the alcohol (substrate specificity) (FAO2a): much better than FAO1 | Activity Detected (FAO1 or FAO2): X | Activity of FAO2a′ with the alcohol (substrate specificity) (FAO2a′): much better than FAO1
